In ChEMBL document CHEMBL5042478, “Design, Synthesis, and Evaluation of VHL-Based EZH2 Degraders to Enhance Therapeutic Activity against Lymphoma” (J Med Chem, 2021) one finds Activity and viability data, which are given here for two compounds.

Activity calls are given as the source filed them. The calls are words filed in the database; no cut-off is given here.

In data set [1] the test system is SU-DHL-6. As to the kind of experiment: Induction of apoptosis in human SU-DHL-6 cells at 1 to 5 uM incubated for 48 hrs by Annexin V/propidium iodide staining based flow cytometry. Type of data set: functional, cell-based. The conditions noted are these: dose 1-5 µM.
The test system of data set [2] is SU-DHL-6. In words: Antiproliferative activity against human SU-DHL-6 cells assessed as viable cells at 10 uM by cello meter auto T4 cell counter relative to control. The conditions noted are these: read-out: Activity. Type of data set: functional.
Data set [3] concerns SU-DHL-2. In words: Antiproliferative activity against human SUDHL2 cells assessed as viable cells at 10 uM by cello meter auto T4 cell counter relative to control. The data set is classed as functional. The conditions noted are these: read-out: Activity.
In data set [4] the test system is SU-DHL-6. As to the kind of experiment: Induction of cell cycle arrest in human SU-DHL-6 cells assessed as accumulation of cells at sub G1 phase at 1 to 5 uM after 24 hrs by flow cytometry. Type of data set: functional, cell-based. The conditions noted are these: dose 1-5 µM.
Data set [5] deals with SU-DHL-6. In words: Induction of cell cycle arrest in human SU-DHL-6 cells assessed as accumulation of cells at G0/G1 phase at 1 to 5 uM after 24 hrs by flow cytometry. The data set is classed as functional, cell-based. As to conditions: dose 1-5 µM.
Data set [6] deals with SU-DHL-6. In words: Antitumor activity against human SU-DHL-6 cells xenografted in nude Balb/c mouse assessed as reduction in H3K27me3 level in tumor tissue at 42.5 mg/kg, ip administered for 6 times weekly for 3 weeks by Western blot analysis. Type of data set: functional, organism-based.
Data set [7] is described as follows: Toxicity in nude BALB/c mouse xenografted with SU-DHL-6 cells assessed as weight loss at 42.5 mg/kg, ip administered for 6 times weekly for 3 weeks. Type of data set: organism-based. As to conditions: in vivo, 504 h.
Data set [8] has as its system SUD4. As to the kind of experiment: Antiproliferative activity against human SU-DHL-4 cells assessed as viable cells at 10 uM by cello meter auto T4 cell counter relative to control. Type of data set: functional. The conditions noted are these: read-out: Activity.
The test system of data set [9] is SU-DHL-2. As to the kind of experiment: Antiproliferative activity against EZH2 knockdown human SUDHL2 cells assessed as cell growth inhibition measured upto 6 days. The data set is classed as functional, cell-based. The conditions noted are these: time day <=6.
The subject of data set [10] is DLBCL. As to the kind of experiment: Antitumor activity against patient derived human DLBCL cells assessed as increase in capase-3 activity at 1 to 7 uM incubated for 48 hrs by western blot analysis. The data set is classed as functional, cell-based. As to conditions: dose 1-7 µM.
The subject of data set [11] is SUD4. As to the kind of experiment: Antiproliferative activity against human SU-DHL-4 cells assessed as reduction in cell viability at 0.01 to 10 uM measured after 5 days by MTS assay. The conditions noted are these: dose 0.01-10 µM, time 5.0 day. The data set is classed as functional, cell-based.
The target in data set [12] is T1, von Hippel-Lindau disease tumor suppressor/Histone-lysine N-methyltransferase EZH2 (Homo sapiens) (UniProt Q15910+P40337). As to the kind of experiment: Protac activity at VHL/EZH2 in human 22Rv1 cells assessed as reduction in EZH2 level at 1 uM incubated for 48 hrs by Western blot analysis. Type of data set: cell-based.
Data set [13] in a line: Toxicity in nude BALB/c mouse xenografted with SU-DHL-6 cells assessed as weight loss at 80 mg/kg, ip administered for 6 times weekly for 3 weeks. The data set is classed as organism-based. As to conditions: in vivo, 504 h.
Data set [14] deals with T1, von Hippel-Lindau disease tumor suppressor/Histone-lysine N-methyltransferase EZH2 (Homo sapiens). In words: Protac activity at VHL/EZH2 in human 22Rv1 cells assessed as reduction in H3K27me3 level after 24 hrs by Western blot analysis. As to conditions: dose 1-6 µM. The data set is classed as cell-based.
Data set [15] concerns DLBCL. As to the kind of experiment: Antitumor activity against patient derived human DLBCL cells assessed as increase in capase-6 activity at 1 to 7 uM incubated for 48 hrs by western blot analysis. Type of data set: functional, cell-based. As to conditions: dose 1-7 µM.
For data set [16], the target named is T1, von Hippel-Lindau disease tumor suppressor/Histone-lysine N-methyltransferase EZH2 (Homo sapiens). In words: Protac activity at VHL/EZH2 in human 22Rv1 cells assessed as EZH2 protein abundance after 24 hrs by Western blot analysis. Type of data set: cell-based. As to conditions: dose 1-6 µM.
In data set [17] the test system is SU-DHL-6. In words: Induction of cell cycle arrest in human SU-DHL-6 cells after 24 hrs by flow cytometry. As to conditions: dose 1-5 µM. The data set is classed as functional, cell-based.
The test system of data set [18] is SU-DHL-6. As to the kind of experiment: Antitumor activity against human SU-DHL-6 cells xenografted in nude Balb/c mouse assessed as reduction in EZH2 level in tumor tissue at 80 mg/kg, ip administered for 6 times weekly for 3 weeks by Western blot analysis. Type of data set: functional, organism-based.
In data set [19] the test system is SU-DHL-6. As to the kind of experiment: Antitumor activity against human SU-DHL-6 cells xenografted in Balb/c mouse assessed as inhibition of tumor growth at 80 mg/kg, ip administered for 6 times weekly for 3 weeks by Ki67 staining based immunohistochemistry. Type of data set: functional, organism-based.
Data set [20] deals with DLBCL. As to the kind of experiment: Antitumor activity against patient derived human DLBCL cells assessed as EZH2 degradation for 24 hrs by western blot analysis. Type of data set: functional, cell-based. The conditions noted are these: dose 0.1-5 µM.
The subject of data set [21] is SU-DHL-6. In words: Antitumor activity against human SU-DHL-6 cells xenografted in nude Balb/c mouse assessed as reduction in tumor volume at 80 mg/kg, ip administered for 6 times weekly for 3 weeks. The data set is classed as functional, organism-based.
Data set [22] concerns DLBCL. In words: Antitumor activity against patient derived human DLBCL cells assessed as reduction in cell viability at 1 to 7 uM incubated for 48 hrs by adenosine triphosphate assay. Type of data set: functional, cell-based. The conditions noted are these: dose 1-7 µM.
Data set [23] concerns SU-DHL-6. As to the kind of experiment: Antiproliferative activity against human SU-DHL-6 cells assessed as reduction in cell viability at 0.01 to 10 uM measured after 5 days by MTS assay. The data set is classed as functional, cell-based. The conditions noted are these: dose 0.01-10 µM, time 5.0 day.
Data set [24] deals with SU-DHL-2. In words: Antiproliferative activity against human SUDHL2 cells assessed as reduction in cell viability at 0.01 to 10 uM measured after 5 days by MTS assay. The data set is classed as functional, cell-based. As to conditions: dose 0.01-10 µM, time 5.0 day.
Data set [25] has as its target T1, von Hippel-Lindau disease tumor suppressor/Histone-lysine N-methyltransferase EZH2 (Homo sapiens). In words: Protac activity at VHL/EZH2 in human 22Rv1 cells assessed as reduction in H3K27me3 level at 1 uM incubated for 48 hrs by Western blot analysis. The data set is classed as cell-based.
For data set [26], the system named is SU-DHL-6. As to the kind of experiment: Antitumor activity against human SU-DHL-6 cells xenografted in Balb/c mouse assessed as […] in tumor tissue at 80 mg/kg, ip administered for 6 times weekly for 3 weeks by Ki67 staining based immunohistochemistry. The data set is classed as functional, organism-based.
Data set [27] addresses T1, von Hippel-Lindau disease tumor suppressor/Histone-lysine N-methyltransferase EZH2 (Homo sapiens). As to the kind of experiment: Protac activity at VHL/EZH2 in human 22Rv1 cells assessed as increase in EZH2 ubiquitination at 2 uM for 12 hrs by immunoprecipitation based Western blot analysis. The data set is classed as cell-based.
The subject of data set [28] is SU-DHL-6. In words: Antitumor activity against human SU-DHL-6 cells xenografted in nude Balb/c mouse assessed as reduction in tumor volume at 42.5 mg/kg, ip administered for 6 times weekly for 3 weeks. The data set is classed as functional, organism-based.
Data set [29] deals with SU-DHL-6. As to the kind of experiment: Induction of apoptosis in human SU-DHL-6 cells assessed as increase in cleaved PARP level at 1 to 5 uM incubated for 48 hrs by Western blot analysis. The conditions noted are these: dose 1-5 µM. Type of data set: functional, cell-based.
Data set [30] concerns SU-DHL-6. As to the kind of experiment: Induction of cell cycle arrest in human SU-DHL-6 cells assessed as accumulation of cells at sub G1 phase after 24 hrs by flow cytometry. The data set is classed as functional, cell-based. As to conditions: dose 1-5 µM.
Data set [31] has as its target von Hippel-Lindau disease tumor suppressor/Histone-lysine N-methyltransferase EZH1 (Homo sapiens) (UniProt Q92800+P40337). In words: Protac activity at VHL/EZH1 in human 22Rv1 cells assessed as EZH1 protein abundance at 1 to 6 uM after 24 hrs by Western blot analysis. Type of data set: cell-based. The conditions noted are these: dose 1-6 µM.
Data set [32] has as its system SU-DHL-6. In words: Induction of apoptosis in human SU-DHL-6 cells assessed as increase in cleaved capase-3 level at 1 to 5 uM incubated for 48 hrs by Western blot analysis. The data set is classed as functional, cell-based. As to conditions: dose 1-5 µM.
Data set [33] relates to SU-DHL-6. In words: Antitumor activity against human SU-DHL-6 cells xenografted in nude Balb/c mouse assessed as reduction in H3K27me3 level in tumor tissue at 80 mg/kg, ip administered for 6 times weekly for 3 weeks by Western blot analysis. Type of data set: functional, organism-based.

T1 sequence (P40337 whole entry, looked up): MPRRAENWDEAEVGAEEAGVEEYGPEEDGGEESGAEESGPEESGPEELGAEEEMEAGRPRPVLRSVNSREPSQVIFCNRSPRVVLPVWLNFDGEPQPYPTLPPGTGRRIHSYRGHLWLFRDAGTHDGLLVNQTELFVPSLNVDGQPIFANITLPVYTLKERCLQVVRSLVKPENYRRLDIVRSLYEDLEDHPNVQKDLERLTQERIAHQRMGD
T1 sequence (Q15910 whole entry, looked up): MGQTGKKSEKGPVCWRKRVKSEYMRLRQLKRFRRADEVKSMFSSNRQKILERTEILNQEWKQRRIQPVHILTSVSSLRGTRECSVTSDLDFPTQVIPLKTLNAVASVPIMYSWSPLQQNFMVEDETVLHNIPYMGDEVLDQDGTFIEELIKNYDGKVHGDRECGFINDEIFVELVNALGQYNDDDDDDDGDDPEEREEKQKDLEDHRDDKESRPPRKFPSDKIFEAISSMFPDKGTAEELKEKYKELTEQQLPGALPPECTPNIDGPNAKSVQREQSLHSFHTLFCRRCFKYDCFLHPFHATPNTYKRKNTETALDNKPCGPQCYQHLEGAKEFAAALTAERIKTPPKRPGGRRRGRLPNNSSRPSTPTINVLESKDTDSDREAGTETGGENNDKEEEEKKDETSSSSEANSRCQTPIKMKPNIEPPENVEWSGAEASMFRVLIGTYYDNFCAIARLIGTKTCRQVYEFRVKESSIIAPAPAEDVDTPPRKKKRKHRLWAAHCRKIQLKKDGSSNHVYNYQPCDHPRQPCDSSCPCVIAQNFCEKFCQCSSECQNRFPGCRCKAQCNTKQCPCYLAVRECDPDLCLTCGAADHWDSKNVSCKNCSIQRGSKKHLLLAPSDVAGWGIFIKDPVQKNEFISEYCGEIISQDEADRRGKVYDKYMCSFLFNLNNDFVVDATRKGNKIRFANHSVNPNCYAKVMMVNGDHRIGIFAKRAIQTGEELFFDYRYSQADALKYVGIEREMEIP
Sequence of von Hippel-Lindau disease tumor suppressor/Histone-lysine N-methyltransferase EZH1 (Homo sapiens) (P40337 whole entry, looked up): as the sequence (P40337 whole entry, looked up) above
Sequence of von Hippel-Lindau disease tumor suppressor/Histone-lysine N-methyltransferase EZH1 (Homo sapiens) (Q92800 whole entry, looked up): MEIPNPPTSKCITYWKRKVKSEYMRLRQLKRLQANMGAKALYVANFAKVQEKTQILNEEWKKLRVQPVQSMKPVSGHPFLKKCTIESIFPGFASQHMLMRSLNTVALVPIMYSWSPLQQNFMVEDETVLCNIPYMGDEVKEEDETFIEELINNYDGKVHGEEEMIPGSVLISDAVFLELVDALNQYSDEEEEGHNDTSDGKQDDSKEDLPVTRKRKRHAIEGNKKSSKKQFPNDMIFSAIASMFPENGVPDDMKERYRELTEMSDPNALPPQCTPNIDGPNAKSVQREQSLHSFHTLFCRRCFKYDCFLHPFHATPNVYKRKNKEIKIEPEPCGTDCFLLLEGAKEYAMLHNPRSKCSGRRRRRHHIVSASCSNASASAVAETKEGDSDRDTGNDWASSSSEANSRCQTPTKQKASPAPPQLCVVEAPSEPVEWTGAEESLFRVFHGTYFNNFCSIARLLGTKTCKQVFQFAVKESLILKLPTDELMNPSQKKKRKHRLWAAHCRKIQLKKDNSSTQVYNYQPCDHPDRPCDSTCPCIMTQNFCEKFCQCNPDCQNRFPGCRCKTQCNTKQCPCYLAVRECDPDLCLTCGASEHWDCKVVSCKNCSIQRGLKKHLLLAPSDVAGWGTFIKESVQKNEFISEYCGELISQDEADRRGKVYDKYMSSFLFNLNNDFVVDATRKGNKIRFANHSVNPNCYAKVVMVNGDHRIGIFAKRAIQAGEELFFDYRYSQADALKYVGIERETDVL

For the compound `CCN(c1cc(-c2ccc(CN3CCOCC3)cc2)cc(C(=O)NCc2c(C)cc(C)[nH]c2=O)c1C)C1CCOCC1` [TAZEMETOSTAT], the result in data set [1] and in [4] was inactive. Besides, the viability at 10 µM in [2], in data set [3] and in [8] was 25% each time. Also, the result in data set [5], in data set [6] and in data set [9] was Active. Further, the Activity entry in data set [7] was “Non-Toxic”.
For the compound `CCN(c1cc(-c2ccc(OCCCOCC(=O)N[C@H](C(=O)N3C[C@H](O)C[C@H]3C(=O)NCc3ccc(-c4scnc4C)cc3)C(C)(C)C)cc2)cc(C(=O)NCc2c(C)cc(C)[nH]c2=O)c1C)C1CCOCC1`, the Activity result is “Dose-Dependent Effect” in data set [1]; “Non-Toxic” in [13]; “Dose-Dependent Effect” in data set [14]; “Dose-Dependent Effect” in [16]; “Dose-Dependent Effect” in data set [17]; “Dose-Dependent Effect” in [20]. Besides, in data set [30], the Activity result was “Dose-Dependent Effect”. The result in [10], in data set [11], in [12], in data set [15], in [18] and in data set [19] was Active. For the same compound, the result in [21], in data set [22], in data set [23], in data set [24], in data set [25] and in data set [26] was Active. The outcome in data set [27], in data set [29], in data set [32] and in [33] was Active. The outcome in data set [28] and in [31] was inactive.
